# Data: patent US10481149B2
# Read-outs that look alike come from different tables or passages of the source.
# Experiments:
# BSEP [1] = target: T1, BSEP (Mus musculus, UniProt Q9QY30); assay: Inhibition of BSEP activity (transport of taurocholate) in mouse hepatocytes
# T1 sequence (Q9QY30 1-1321): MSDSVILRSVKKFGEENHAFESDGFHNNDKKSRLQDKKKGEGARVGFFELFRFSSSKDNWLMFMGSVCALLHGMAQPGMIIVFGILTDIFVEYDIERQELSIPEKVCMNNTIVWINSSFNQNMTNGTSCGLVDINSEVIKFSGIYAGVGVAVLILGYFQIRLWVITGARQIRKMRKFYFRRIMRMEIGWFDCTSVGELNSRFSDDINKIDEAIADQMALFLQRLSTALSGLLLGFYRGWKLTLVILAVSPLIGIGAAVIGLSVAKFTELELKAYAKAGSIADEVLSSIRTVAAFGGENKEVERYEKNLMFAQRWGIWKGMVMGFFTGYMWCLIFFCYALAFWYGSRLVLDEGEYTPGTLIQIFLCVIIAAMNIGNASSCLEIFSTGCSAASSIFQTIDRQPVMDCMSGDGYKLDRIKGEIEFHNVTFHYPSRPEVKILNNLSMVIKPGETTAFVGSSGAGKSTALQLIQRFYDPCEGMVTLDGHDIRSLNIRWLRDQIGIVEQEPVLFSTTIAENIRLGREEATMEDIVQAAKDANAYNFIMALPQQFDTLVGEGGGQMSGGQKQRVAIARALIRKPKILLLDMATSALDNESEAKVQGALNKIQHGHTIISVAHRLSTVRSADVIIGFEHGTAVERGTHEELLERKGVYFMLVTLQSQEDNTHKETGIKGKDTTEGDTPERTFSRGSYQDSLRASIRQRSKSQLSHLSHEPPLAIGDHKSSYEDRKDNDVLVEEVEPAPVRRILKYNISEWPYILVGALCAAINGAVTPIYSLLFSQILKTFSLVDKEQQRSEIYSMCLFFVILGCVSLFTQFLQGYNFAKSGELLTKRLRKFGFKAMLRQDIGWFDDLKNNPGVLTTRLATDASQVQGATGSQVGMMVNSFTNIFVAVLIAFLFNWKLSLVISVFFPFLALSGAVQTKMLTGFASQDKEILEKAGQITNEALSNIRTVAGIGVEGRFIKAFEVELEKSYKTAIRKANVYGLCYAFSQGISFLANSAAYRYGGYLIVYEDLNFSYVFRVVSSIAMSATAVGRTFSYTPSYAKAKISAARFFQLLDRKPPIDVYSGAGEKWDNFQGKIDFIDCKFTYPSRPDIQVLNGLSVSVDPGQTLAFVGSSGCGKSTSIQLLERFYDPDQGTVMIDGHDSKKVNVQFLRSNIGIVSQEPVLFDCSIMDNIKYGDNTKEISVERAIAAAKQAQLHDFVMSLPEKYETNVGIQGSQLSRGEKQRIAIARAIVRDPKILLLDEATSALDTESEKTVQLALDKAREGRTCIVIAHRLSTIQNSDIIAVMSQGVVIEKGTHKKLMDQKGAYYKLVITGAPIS
# BSEP [2] = target: BSEP (Macaca fascicularis, UniProt D2CFL3); assay: IC50 for inhibition of BSEP activity in monkey hepatocytes; type: cell-based; conditions: hepatocytes in suspension
# Sequence of BSEP (Macaca fascicularis, UniProt D2CFL3) (D2CFL3 1-1323): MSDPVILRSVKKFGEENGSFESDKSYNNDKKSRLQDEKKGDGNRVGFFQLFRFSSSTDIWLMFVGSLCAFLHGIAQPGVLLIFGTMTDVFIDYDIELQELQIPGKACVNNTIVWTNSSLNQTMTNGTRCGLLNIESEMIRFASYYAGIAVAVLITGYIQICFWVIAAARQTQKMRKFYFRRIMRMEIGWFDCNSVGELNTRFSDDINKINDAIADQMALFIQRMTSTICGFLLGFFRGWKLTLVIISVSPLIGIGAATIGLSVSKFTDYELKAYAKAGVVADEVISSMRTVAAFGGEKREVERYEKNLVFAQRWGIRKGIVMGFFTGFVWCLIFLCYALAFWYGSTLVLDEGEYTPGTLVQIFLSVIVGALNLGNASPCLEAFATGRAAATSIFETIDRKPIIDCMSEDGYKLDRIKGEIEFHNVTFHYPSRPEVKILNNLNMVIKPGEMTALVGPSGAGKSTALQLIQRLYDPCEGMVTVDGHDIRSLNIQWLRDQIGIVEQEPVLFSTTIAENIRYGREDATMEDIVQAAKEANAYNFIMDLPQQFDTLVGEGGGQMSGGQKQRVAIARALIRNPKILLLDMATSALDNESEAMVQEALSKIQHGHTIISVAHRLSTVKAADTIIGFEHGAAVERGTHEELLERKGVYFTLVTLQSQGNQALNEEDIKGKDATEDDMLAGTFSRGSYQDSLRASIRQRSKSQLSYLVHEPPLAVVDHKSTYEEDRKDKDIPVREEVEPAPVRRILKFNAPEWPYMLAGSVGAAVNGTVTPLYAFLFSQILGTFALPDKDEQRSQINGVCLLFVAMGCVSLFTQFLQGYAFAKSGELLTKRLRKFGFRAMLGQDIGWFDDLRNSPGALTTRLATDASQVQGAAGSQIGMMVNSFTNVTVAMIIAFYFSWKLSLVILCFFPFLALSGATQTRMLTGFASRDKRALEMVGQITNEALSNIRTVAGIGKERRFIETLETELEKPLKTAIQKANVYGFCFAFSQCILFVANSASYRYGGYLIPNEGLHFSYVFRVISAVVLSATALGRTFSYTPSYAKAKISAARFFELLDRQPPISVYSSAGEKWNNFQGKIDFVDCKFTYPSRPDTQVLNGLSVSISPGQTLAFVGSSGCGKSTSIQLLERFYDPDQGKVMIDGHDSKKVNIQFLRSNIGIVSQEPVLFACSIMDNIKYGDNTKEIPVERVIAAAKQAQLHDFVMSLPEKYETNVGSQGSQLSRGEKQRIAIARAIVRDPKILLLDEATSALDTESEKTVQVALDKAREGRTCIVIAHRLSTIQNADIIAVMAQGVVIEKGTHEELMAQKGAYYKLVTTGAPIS
# Protocol: (§1) Kinetic parameters were calculated using standard Michaelis-Menten kinetics. IC50 values were determined using Prism software (La Jolla, Calif.) or median-effect equation. [Chou et al., Theoretical basis, experimental design, and computerized simulation of synergism and antagonism in Drug Combination Studies. Pharmacological Reviews 58, 621, 2006]
# BSEP [3] = target: T1, BSEP; assay: IC50 for inhibition of BSEP activity in mouse hepatocytes; type: cell-based
# Protocol: as §1
# BSEP [4] = target: T2, BSEP (Canis lupus familiaris, UniProt B8K1W2); assay: IC50 for inhibition of BSEP activity in dog hepatocytes; type: cell-based
# T2 sequence (B8K1W2 1-1325): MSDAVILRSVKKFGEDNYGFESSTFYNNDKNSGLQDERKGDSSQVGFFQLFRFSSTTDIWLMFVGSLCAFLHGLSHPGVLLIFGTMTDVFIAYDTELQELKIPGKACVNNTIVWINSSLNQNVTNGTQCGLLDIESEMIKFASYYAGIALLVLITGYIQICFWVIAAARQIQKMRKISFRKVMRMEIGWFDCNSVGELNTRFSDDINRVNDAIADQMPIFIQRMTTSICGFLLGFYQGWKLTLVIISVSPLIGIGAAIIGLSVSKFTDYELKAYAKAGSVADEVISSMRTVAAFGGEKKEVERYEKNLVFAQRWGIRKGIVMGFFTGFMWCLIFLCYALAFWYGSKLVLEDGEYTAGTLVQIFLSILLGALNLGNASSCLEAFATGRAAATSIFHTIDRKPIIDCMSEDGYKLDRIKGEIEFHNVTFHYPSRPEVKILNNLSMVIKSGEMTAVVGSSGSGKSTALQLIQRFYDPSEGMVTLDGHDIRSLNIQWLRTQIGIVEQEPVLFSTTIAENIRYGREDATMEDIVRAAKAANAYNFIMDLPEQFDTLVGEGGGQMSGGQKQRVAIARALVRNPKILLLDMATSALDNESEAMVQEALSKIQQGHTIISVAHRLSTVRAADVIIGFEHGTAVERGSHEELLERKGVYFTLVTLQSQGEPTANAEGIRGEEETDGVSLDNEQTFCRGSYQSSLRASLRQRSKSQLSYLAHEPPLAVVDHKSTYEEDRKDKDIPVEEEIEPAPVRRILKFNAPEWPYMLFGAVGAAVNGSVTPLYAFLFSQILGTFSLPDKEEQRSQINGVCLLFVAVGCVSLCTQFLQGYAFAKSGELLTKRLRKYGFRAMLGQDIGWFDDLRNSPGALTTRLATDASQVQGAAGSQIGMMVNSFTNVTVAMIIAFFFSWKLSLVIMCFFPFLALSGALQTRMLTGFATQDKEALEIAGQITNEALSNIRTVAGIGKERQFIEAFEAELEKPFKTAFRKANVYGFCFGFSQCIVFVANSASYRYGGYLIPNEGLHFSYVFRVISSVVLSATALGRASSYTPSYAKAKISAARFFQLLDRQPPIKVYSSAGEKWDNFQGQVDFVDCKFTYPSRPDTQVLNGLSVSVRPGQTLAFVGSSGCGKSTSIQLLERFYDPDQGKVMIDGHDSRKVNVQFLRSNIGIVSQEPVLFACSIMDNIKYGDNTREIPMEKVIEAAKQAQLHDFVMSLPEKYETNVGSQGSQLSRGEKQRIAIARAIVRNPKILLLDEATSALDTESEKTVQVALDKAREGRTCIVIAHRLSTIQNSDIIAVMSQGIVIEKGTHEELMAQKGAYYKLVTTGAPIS
# Protocol: as §1
# [5] = hepatocytes in suspension, probe taurocholate
SMILES,"inhibition at 1 h, 1 μM (BSEP [1]) [%]","inhibition at 1 h, 10 μM (BSEP [1]) [%]","inhibition at 1 h, 1 μM (BSEP [1]; [5]) [%]","inhibition at 1 h, 10 μM (BSEP [1]; [5]) [%]",IC50 at 1 h (BSEP [2]) [µM],IC50 (BSEP [3]) [µM],IC50 (BSEP [4]) [µM]
"S=P(N1CC1)(N1CC1)N1CC1 [Thiotepa, thiotepa]",< 50,< 50,–,–,–,–,–
"COC(=O)N[C@H](C(=O)N[C@@H](Cc1ccccc1)[C@@H](O)CN(Cc1ccc(-c2ccccn2)cc1)NC(=O)[C@@H](NC(=O)OC)C(C)(C)C)C(C)(C)C [Atazanavir, atazanavir]",–,–,< 50,< 50,–,–,–
"O=c1c(O)c(-c2ccc(O)c(O)c2)oc2cc(O)cc(O)c12 [Quercetin, quercetin]",–,–,< 50,< 50,–,–,–
"OC(Cn1cncn1)(Cn1cncn1)c1ccc(F)cc1F [Fluconazole, fluconazole]",–,–,< 50,< 50,–,–,–
"Cc1c(O)cccc1C(=O)N[C@@H](CSc1ccccc1)[C@H](O)CN1C[C@H]2CCCC[C@H]2C[C@H]1C(=O)NC(C)(C)C [Nelfinavir, nelfinavir]",–,–,< 50,< 50,–,–,–
"C[C@@H](Oc1cc(-c2cnn(C3CCNCC3)c2)cnc1N)c1c(Cl)ccc(F)c1Cl [Crizotinib, crizotinib]",–,–,< 50,< 50,–,–,–
"C=C[C@H]1C[N@@]2CC[C@H]1C[C@@H]2[C@@H](O)c1ccnc2ccc(OC)cc12 [Quinidine, quinidine]",–,–,< 50,< 50,–,–,–
CO[C@H]1/C=C/O[C@@]2(C)Oc3c(C)c(O)c4c(O)c(c(/C=N/N5CCN(C)CC5)c(O)c4c3C2=O)NC(=O)/C(C)=C\C=C\[C@H](C)[C@H](O)[C@@H](C)[C@@H](O)[C@@H](C)[C@H](OC(C)=O)[C@@H]1C [Rifampicin],–,–,–,–,< 1,> 10,> 10
"CC[C@]1(O)C[C@@H]2CN(CCc3c([nH]c4ccccc34)[C@@](C(=O)OC)(c3cc4c(cc3OC)N(C)[C@H]3[C@@](O)(C(=O)OC)[C@H](OC(C)=O)[C@]5(CC)C=CCN6CC[C@]43[C@@H]65)C2)C1 [Vinblastine, vinblastine]",–,–,< 50,< 50,–,–,–
"CC(=O)N1CCN(c2ccc(OCC3COC(Cn4ccnc4)(c4ccc(Cl)cc4Cl)O3)cc2)CC1 (stereo not shown) [Ketoconazole, ketoconazole]",–,–,< 50,< 50,1 to 10,> 10,1 to 10
"Cc1c(C)c2c(c(C)c1O)CCC(C)(COc1ccc(CC3SC(=O)NC3=O)cc1)O2 (stereo not shown) [Troglitazone, troglitazone]",–,–,< 50,< 50,1 to 10,> 10,1 to 10
"CC(C)NCC(O)COc1cccc2ccccc12 (stereo not shown) [Propranolol, propranolol]",–,–,< 50,< 50,–,–,–
